The subject of the experiment is anaphylactic asthma in guinea pigs. Put plainly: Antagonistic action on anaphylactic asthma in guinea pigs (prophylactic effect, survival after antigen spraying). It counts as in vivo, guinea pigs (male Hartley-strain). Conditions: Cavia porcellus; oral, 30 min before egg-white albumin aerosol; survival for not less than 2 hours; passively sensitized guinea pigs.
What is called ED50 is the midpoint of the dose-response relation. For the molecule `CC(=O)Nc1nc(CN2CCC(c3c[nH]c4ccccc34)CC2)cs1` [Compound A, 2-Acetylamino-4-[4-(3-indolyl)piperidinomethyl]thiazole], the 50% effective dose (ED50) was found to be 0.95 mg/kg.
For `CS(=O)(=O)Nc1nc(CN2CCC(c3c[nH]c4ccccc34)CC2)cs1` [Compound B, 4-[4-(3-Indolyl)piperidinomethyl]-2-mesylaminothiazole] the value was 0.086 mg/kg; for `CS(=O)(=O)Nc1nc(CCN2CCC(c3c[nH]c4ccccc34)CC2)cs1` [Compound C, 4-[2-[4-(3-Indolyl)piperidino]ethyl]2-mesylaminothiazole], 0.02 mg/kg; for `CCC(=O)Nc1nc(CN2CCC(c3c[nH]c4ccccc34)CC2)cs1` [Compound D, 4-[4-(3-Indolyl)piperidinomethyl]-2-propionylaminothiazole], 0.92 mg/kg.
For the molecule `Nc1nc(CCCN2CCC(c3c[nH]c4ccccc34)CC2)cs1` [Compound F, 4-[3-[4-(3-Indolyl)piperidino]propyl]-2-aminothiazole], the median effective dose (ED50) was determined as 0.3 mg/kg.
For `CS(=O)(=O)Nc1nc(CCCN2CCC(c3c[nH]c4ccccc34)CC2)cs1` [Compound G, 4-[3-[4-(3-Indolyl)piperidino]propyl]-2-mesylaminothiazole] the value was 0.03 mg/kg.

The record behind these values is patent US4742057A, “Antiallergic thiazole compounds” (Fujisawa Pharmaceutical Co., Ltd., priority 1985, dated 1988).
